{"source": "PubChem BioAssay (NCI)", "assay_in_all_cases": "NCI tumour cell line growth inhibition, 48 h", "key": {"786-0 renal": {"system": "786-0 renal"}, "A498 renal": {"system": "A498 renal"}, "A549 NSCLC": {"system": "A549 NSCLC"}, "ACHN renal": {"system": "ACHN renal"}, "BT-549 breast": {"system": "BT-549 breast"}, "CAKI-1 renal": {"system": "CAKI-1 renal"}, "CCRF-CEM leukemia": {"system": "CCRF-CEM leukemia"}, "COLO 205 colon": {"system": "COLO 205 colon"}, "DU-145 prostate": {"system": "DU-145 prostate"}, "EKVX NSCLC": {"system": "EKVX NSCLC"}, "HCC-2998 colon": {"system": "HCC-2998 colon"}, "HCT-116 colon": {"system": "HCT-116 colon"}, "HCT-15 colon": {"system": "HCT-15 colon"}, "HL-60(TB) leukemia": {"system": "HL-60(TB) leukemia"}, "HOP-62 NSCLC": {"system": "HOP-62 NSCLC"}, "HOP-92 NSCLC": {"system": "HOP-92 NSCLC"}, "HS 578T breast": {"system": "HS 578T breast"}, "HT29 colon": {"system": "HT29 colon"}, "IGROV1 ovarian": {"system": "IGROV1 ovarian"}, "K-562 leukemia": {"system": "K-562 leukemia"}, "KM12 colon": {"system": "KM12 colon"}, "LOX IMVI melanoma": {"system": "LOX IMVI melanoma"}, "M14 melanoma": {"system": "M14 melanoma"}, "MALME-3M melanoma": {"system": "MALME-3M melanoma"}, "MCF7 breast": {"system": "MCF7 breast"}, "MDA-MB-435": {"system": "MDA-MB-435"}, "MDA-MB-468 breast": {"system": "MDA-MB-468 breast"}, "MOLT-4 leukemia": {"system": "MOLT-4 leukemia"}}, "note": "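Exposure lasted 48 hours, with cells grown in 96-well plates and compounds tested at five concentrations. Here, GI50 denotes the concentration required for 50% inhibition of growth. TGI is the concentration that stops growth completely.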", "data": [{"molecule": "N#Cc1c(-c2ccc(F)cc2)nc(SCc2ccccc2)nc1N1CCNCC1", "values": [{"measurement": "GI50", "setting": "786-0 renal", "value": 11, "unit": "µM"}, {"measurement": "TGI", "setting": "786-0 renal", "value": 25.4, "unit": "µM"}, {"measurement": "GI50", "setting": "A498 renal", "value": 13.1, "unit": "µM"}, {"measurement": "TGI", "setting": "A498 renal", "value": 27.3, "unit": "µM"}, {"measurement": "GI50", "setting": "A549 NSCLC", "value": 8.1, "unit": "µM"}, {"measurement": "TGI", "setting": "A549 NSCLC", "value": 21.5, "unit": "µM"}, {"measurement": "GI50", "setting": "ACHN renal", "value": 14, "unit": "µM"}, {"measurement": "TGI", "setting": "ACHN renal", "value": 27.5, "unit": "µM"}, {"measurement": "GI50", "setting": "BT-549 breast", "value": 13, "unit": "µM"}, {"measurement": "TGI", "setting": "BT-549 breast", "value": 26.4, "unit": "µM"}, {"measurement": "GI50", "setting": "CAKI-1 renal", "value": 16, "unit": "µM"}, {"measurement": "TGI", "setting": "CAKI-1 renal", "value": 29.7, "unit": "µM"}, {"measurement": "GI50", "setting": "CCRF-CEM leukemia", "value": 13.9, "unit": "µM"}, {"measurement": "TGI", "setting": "CCRF-CEM leukemia", "value": 31, "unit": "µM"}, {"measurement": "GI50", "setting": "COLO 205 colon", "value": 1.66, "unit": "µM"}, {"measurement": "TGI", "setting": "COLO 205 colon", "value": 3.17, "unit": "µM"}, {"measurement": "GI50", "setting": "DU-145 prostate", "value": 15, "unit": "µM"}, {"measurement": "TGI", "setting": "DU-145 prostate", "value": 29, "unit": "µM"}, {"measurement": "GI50", "setting": "EKVX NSCLC", "value": 12, "unit": "µM"}, {"measurement": "TGI", "setting": "EKVX NSCLC", "value": 24.8, "unit": "µM"}, {"measurement": "GI50", "setting": "HCC-2998 colon", "value": 1.76, "unit": "µM"}, {"measurement": "TGI", "setting": "HCC-2998 colon", "value": 3.22, "unit": "µM"}, {"measurement": "GI50", "setting": "HCT-116 colon", "value": 3.51, "unit": "µM"}, {"measurement": "TGI", "setting": "HCT-116 colon", "value": 11.6, "unit": "µM"}, {"measurement": "GI50", "setting": "HCT-15 colon", "value": 5.05, "unit": "µM"}, {"measurement": "TGI", "setting": "HCT-15 colon", "value": 17.5, "unit": "µM"}, {"measurement": "GI50", "setting": "HL-60(TB) leukemia", "value": 4.5, "unit": "µM"}, {"measurement": "TGI", "setting": "HL-60(TB) leukemia", "value": 17.3, "unit": "µM"}, {"measurement": "GI50", "setting": "HOP-62 NSCLC", "value": 13.2, "unit": "µM"}, {"measurement": "TGI", "setting": "HOP-62 NSCLC", "value": 28.1, "unit": "µM"}, {"measurement": "GI50", "setting": "HOP-92 NSCLC", "value": 4.2, "unit": "µM"}, {"measurement": "TGI", "setting": "HOP-92 NSCLC", "value": 18.1, "unit": "µM"}, {"measurement": "GI50", "setting": "HS 578T breast", "value": 14.1, "unit": "µM"}, {"measurement": "TGI", "setting": "HS 578T breast", "value": 32, "unit": "µM"}, {"measurement": "GI50", "setting": "HT29 colon", "value": 3.3, "unit": "µM"}, {"measurement": "TGI", "setting": "HT29 colon", "value": 10.5, "unit": "µM"}, {"measurement": "GI50", "setting": "IGROV1 ovarian", "value": 14.7, "unit": "µM"}, {"measurement": "TGI", "setting": "IGROV1 ovarian", "value": 28.9, "unit": "µM"}, {"measurement": "GI50", "setting": "K-562 leukemia", "value": 2.21, "unit": "µM"}, {"measurement": "TGI", "setting": "K-562 leukemia", "value": 5.42, "unit": "µM"}, {"measurement": "GI50", "setting": "KM12 colon", "value": 17.1, "unit": "µM"}, {"measurement": "TGI", "setting": "KM12 colon", "value": 32.8, "unit": "µM"}, {"measurement": "GI50", "setting": "LOX IMVI melanoma", "value": 1.71, "unit": "µM"}, {"measurement": "TGI", "setting": "LOX IMVI melanoma", "value": 3.33, "unit": "µM"}, {"measurement": "GI50", "setting": "M14 melanoma", "value": 12, "unit": "µM"}, {"measurement": "TGI", "setting": "M14 melanoma", "value": 24.8, "unit": "µM"}, {"measurement": "GI50", "setting": "MALME-3M melanoma", "value": 14.1, "unit": "µM"}, {"measurement": "TGI", "setting": "MALME-3M melanoma", "value": 28.2, "unit": "µM"}, {"measurement": "GI50", "setting": "MCF7 breast", "value": 3.94, "unit": "µM"}, {"measurement": "TGI", "setting": "MCF7 breast", "value": 15.3, "unit": "µM"}, {"measurement": "GI50", "setting": "MDA-MB-435", "value": 16.9, "unit": "µM"}, {"measurement": "TGI", "setting": "MDA-MB-435", "value": 31.5, "unit": "µM"}, {"measurement": "GI50", "setting": "MDA-MB-468 breast", "value": 6.71, "unit": "µM"}, {"measurement": "TGI", "setting": "MDA-MB-468 breast", "value": 21.3, "unit": "µM"}, {"measurement": "GI50", "setting": "MOLT-4 leukemia", "value": 7.07, "unit": "µM"}]}]}
